Like-named read-outs stand apart in the source and are kept apart here.

What all share (assay type): biochemical
Test [1] has as its target T1, recombinant alpha-glucosidase II (murine full-length glucosidase II, alpha and beta subunits, Glu 2) (Mus musculus, UniProt Q8BHN3).
T1 construct: made in house; host or cells: HEK-293T cells transduced with BacMam viruses (75% alpha, 25% beta); protein harvested from culture supernatant
The experiment in a line: Alpha-glucosidase II assay (4-methylumbelliferyl-alpha-D-pyranoside substrate, fluorescence).

Test [2] concerns the target recombinant human GAA (acid alpha-glucosidase) (Homo sapiens, UniProt P10253). The experiment in a line: Acid alpha-glucosidase (GAA) assay (4-methylumbelliferyl-alpha-D-pyranoside substrate, fluorescence). In outline: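 IC50 from 4-PL curve fit of percent inhibition, based on fluorescence (365/440 nm) of released methylumbelliferone relative to uninhibited enzyme. Compound dilutions and human GAA incubated 60 min, 37 °C, before 20 min substrate reaction at 37 °C, quenched at pH 10.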

For test [3], the target named is T2, recombinant human GBA (beta-glucocerebrosidase) (Homo sapiens, UniProt P04062).
T2 sequence (P04062 40-536): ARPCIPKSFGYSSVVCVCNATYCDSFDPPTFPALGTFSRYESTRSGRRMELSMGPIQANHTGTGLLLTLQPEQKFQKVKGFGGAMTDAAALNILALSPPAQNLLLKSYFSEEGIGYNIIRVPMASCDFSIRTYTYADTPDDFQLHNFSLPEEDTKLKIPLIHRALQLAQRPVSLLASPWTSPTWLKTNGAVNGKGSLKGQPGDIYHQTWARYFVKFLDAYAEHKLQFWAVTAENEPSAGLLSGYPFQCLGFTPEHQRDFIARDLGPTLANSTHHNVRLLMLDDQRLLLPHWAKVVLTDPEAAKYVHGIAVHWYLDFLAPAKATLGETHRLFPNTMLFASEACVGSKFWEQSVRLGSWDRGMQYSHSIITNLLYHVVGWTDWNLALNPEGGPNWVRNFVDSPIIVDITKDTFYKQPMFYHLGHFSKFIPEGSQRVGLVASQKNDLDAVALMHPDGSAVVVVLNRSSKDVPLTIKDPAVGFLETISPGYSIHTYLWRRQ
Description: Beta-glucocerebrosidase (GBA, glucosylceramidase) assay (4-methylumbelliferyl-beta-D-pyranoside substrate, fluorescence). In outline: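 IC50 by four-parameter fit of percent inhibition, with product fluorescence (365/440 nm) read after a glycine/NaOH pH 10 stop. Compound and commercial recombinant human enzyme were incubated 60 min at 37 °C before a further 60 min at 37 °C with 4-methylumbelliferyl-beta-D-pyranoside substrate.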

Test [4] addresses rat maltase (partially purified alpha-glucosidase from intestinal rat powder). Description: Intestinal alpha-glucosidase assay, maltose substrate (Glucose GO Kit). In a few lines:
(§1)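 Glucose release is the read-out: compounds at multiple dilutions are first held with partially purified rat intestinal alpha-glucosidase for 60 min at 37 °C, after which maltose or sucrose substrate reacts for 30 min at 37 °C before a 5 min 90 °C stop. IC50 comes from a four-parameter logistic fit.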

Test [5] concerns the target rat sucrase (partially purified alpha-glucosidase from intestinal rat powder) (Rattus norvegicus, UniProt P23739). Description: Intestinal alpha-glucosidase assay, sucrose substrate (Glucose GO Kit). In outline: as §1
The mark [6] stands for this setting: Glucosidase 2, read-out: Glu2 IC50.

T1 sequence (O08795 15-521): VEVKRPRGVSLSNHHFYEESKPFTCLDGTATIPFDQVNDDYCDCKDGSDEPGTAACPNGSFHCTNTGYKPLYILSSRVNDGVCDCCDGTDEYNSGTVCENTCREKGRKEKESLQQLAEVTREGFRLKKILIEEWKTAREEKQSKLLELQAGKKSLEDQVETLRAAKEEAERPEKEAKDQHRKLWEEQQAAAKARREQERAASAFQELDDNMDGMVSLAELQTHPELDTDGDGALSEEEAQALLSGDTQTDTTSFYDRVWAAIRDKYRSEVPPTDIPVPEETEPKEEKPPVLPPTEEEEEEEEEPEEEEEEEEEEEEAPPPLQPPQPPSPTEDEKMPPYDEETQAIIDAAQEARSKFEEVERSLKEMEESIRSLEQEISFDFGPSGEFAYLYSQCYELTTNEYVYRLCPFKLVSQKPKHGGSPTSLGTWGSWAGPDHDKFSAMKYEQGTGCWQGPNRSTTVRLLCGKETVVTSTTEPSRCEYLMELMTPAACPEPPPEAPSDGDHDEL
T1 sequence (Q8BHN3 33-944): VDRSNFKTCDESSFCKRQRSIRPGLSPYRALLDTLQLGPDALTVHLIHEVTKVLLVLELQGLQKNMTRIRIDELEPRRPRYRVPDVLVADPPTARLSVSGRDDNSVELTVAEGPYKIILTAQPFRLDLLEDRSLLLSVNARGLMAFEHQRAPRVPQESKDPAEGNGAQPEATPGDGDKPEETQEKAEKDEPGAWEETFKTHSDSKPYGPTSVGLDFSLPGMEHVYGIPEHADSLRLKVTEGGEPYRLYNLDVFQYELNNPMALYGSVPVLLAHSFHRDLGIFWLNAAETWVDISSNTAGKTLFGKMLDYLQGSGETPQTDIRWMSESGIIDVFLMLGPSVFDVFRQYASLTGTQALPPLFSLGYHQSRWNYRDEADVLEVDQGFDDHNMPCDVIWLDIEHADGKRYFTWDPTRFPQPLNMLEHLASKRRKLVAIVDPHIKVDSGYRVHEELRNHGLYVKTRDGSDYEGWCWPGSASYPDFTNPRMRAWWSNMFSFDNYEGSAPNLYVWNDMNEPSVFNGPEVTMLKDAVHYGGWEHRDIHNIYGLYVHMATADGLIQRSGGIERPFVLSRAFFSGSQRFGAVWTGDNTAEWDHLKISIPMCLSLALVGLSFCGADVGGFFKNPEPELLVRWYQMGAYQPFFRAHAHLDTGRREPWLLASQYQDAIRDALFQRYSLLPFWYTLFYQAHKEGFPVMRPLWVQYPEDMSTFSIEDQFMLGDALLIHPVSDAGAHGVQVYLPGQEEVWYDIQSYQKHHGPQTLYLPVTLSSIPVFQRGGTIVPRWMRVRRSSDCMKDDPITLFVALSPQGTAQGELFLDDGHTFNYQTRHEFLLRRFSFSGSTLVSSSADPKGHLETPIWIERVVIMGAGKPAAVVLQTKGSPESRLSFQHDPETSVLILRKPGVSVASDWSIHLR
Chain of rat sucrase (partially purified alpha-glucosidase from intestinal rat powder) (P23739 whole entry): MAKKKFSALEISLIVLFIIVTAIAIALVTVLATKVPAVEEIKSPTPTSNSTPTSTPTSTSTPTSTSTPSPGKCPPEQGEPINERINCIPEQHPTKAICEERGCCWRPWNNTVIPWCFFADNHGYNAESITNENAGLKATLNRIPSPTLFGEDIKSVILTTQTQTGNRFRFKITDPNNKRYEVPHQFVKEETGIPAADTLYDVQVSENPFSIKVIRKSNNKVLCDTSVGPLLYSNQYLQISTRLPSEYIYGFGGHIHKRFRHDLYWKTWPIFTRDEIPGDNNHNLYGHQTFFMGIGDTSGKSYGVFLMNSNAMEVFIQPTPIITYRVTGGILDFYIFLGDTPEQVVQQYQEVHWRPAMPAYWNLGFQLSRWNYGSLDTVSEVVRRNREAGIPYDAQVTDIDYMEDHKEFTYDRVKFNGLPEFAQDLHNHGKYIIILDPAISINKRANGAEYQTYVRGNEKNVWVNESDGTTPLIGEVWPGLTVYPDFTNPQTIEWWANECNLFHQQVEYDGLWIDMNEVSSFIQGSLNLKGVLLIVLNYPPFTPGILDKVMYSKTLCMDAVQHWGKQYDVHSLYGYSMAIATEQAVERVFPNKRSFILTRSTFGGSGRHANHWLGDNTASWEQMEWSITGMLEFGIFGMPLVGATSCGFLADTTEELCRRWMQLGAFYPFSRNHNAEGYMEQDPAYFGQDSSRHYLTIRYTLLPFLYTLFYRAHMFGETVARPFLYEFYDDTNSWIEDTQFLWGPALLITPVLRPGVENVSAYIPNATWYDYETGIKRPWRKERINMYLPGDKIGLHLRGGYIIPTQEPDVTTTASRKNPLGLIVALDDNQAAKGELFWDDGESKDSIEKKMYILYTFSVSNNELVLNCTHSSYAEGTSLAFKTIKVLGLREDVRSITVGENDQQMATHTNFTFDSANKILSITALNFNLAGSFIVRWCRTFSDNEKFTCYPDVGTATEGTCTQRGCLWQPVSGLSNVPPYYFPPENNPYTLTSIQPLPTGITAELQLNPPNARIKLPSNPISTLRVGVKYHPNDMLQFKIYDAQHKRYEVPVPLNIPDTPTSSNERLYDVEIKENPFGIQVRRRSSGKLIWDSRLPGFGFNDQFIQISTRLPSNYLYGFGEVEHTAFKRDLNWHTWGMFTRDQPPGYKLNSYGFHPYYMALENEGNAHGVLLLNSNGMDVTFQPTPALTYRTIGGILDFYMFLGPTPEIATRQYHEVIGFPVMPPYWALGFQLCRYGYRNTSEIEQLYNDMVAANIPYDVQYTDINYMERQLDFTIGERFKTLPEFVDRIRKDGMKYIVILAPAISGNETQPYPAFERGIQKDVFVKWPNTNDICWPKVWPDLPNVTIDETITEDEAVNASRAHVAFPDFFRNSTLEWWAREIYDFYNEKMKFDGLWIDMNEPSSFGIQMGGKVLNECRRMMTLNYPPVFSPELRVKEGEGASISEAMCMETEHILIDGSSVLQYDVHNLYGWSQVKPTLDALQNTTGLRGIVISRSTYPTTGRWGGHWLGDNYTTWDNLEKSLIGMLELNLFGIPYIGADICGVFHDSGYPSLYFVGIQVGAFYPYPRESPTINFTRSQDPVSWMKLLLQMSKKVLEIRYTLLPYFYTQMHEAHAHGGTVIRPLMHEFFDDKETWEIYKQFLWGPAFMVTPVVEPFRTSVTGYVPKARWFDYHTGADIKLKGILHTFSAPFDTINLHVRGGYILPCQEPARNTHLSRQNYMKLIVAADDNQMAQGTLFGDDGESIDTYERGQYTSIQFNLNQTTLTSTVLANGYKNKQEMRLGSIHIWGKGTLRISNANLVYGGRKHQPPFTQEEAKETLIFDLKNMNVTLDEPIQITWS

For `[N-]=[N+]=Nc1ccc(NCCc2ccc(CCN3C[C@H](O)[C@@H](O)[C@H](O)[C@H]3CO)cc2)c([N+](=O)[O-])c1` [Compound 1200, (2R,3R,4R,5S)-1-[2-(4-{2-[(4-azido-2-nitrophenyl)amino]ethyl}phenyl)ethyl]-2-(hydroxymethyl)piperidine-3,4,5-triol], the IC50 (as a rule, the point on the concentration scale where inhibition reaches its midpoint) in test [1] (setting [6]) was 6 nM; in test [2], 1160 nM; in test [3], 1450 nM; in test [4] it was 81 nM; in test [5] it was 746 nM.
In the case of `OC[C@@H]1[C@@H](O)[C@H](O)[C@@H](O)CN1CCCCCCNc1ccc(-c2cccnn2)cc1Cl` [Compound 1202, (2R,3R,4R,5S)-1-(6-{[2-chloro-4-(pyridazin-3-yl)phenyl]amino}hexyl)-2-(hydroxymethyl)piperidine-3,4,5-triol], the IC50 in test [1] (setting [6]) was < 1 nM; in test [2], 39 nM; in test [3], 3010 nM; in test [4], < 1 nM; in test [5] it was < 1 nM.
In the case of `OC[C@@H]1[C@@H](O)[C@H](O)[C@@H](O)CN1CCCCCCNc1ccc(-c2ncco2)cc1Cl` [Compound 1203, (2R,3R,4R,5S)-1-(6-{[2-chloro-4-(1,3-oxazol-2-yl)phenyl]amino}hexyl)-2-(hydroxymethyl)piperidine-3,4,5-triol], the concentration for half-maximal inhibition (IC50) in test [1] (setting [6]) was < 1 nM; in test [2] it was 40 nM; in test [3], 787 nM; in test [4] it was < 1 nM; in test [5], 11 nM.
As to `COc1cc(-c2ncco2)ccc1NCCCCCCN1C[C@H](O)[C@@H](O)[C@H](O)[C@H]1CO` [Compound 1207, (2R,3R,4R,5S)-2-(hydroxymethyl)-1-(6-{[2-methoxy-4-(1,3-oxazol-2-yl)phenyl]amino}hexyl)piperidine-3,4,5-triol], the IC50 in test [1] (setting [6]) came to 14 nM; in test [2], 75 nM; in test [3] it was 1680 nM; in test [4], 7 nM; in test [5], 71 nM.
In the case of `[N-]=[N+]=Nc1ccc(NCC/C=C/CCN2C[C@H](O)[C@@H](O)[C@H](O)[C@H]2CO)c([N+](=O)[O-])c1` [Compound 1260, (2R,3R,4R,5S)-1-[(3E)-6-[(4-azido-2-nitrophenyl)amino]hex-3-en-1-yl]-2-(hydroxymethyl)piperidine-3,4,5-triol], the IC50 in test [1] was 15 nM; in test [2], 44 nM; in test [3] it was 1560 nM; in test [4] it was < 1 nM; in test [5], 29 nM.
On to `O=[N+]([O-])c1cc(CCO)ccc1NCCCCCCN1C[C@H](O)[C@@H](O)[C@H](O)[C@H]1CO` [Compound 1292, (2R,3R,4R,5S)-1-(6-{[4-(2-hydroxyethyl)-2-nitrophenyl]amino}hexyl)-2-(hydroxymethyl)piperidine-3,4,5-triol], for which the IC50 in test [1] (setting [6]) is 8.6 nM; in test [2] it was 28 nM; in test [3], 1600 nM; in test [4] it was 11 nM; in test [5] it was 40 nM.
With `CS(=O)(=O)Nc1ccc(NCCCCCCN2C[C@H](O)[C@@H](O)[C@H](O)[C@H]2CO)c([N+](=O)[O-])c1` [Compound 1300, N-[3-nitro-4-({6-[(2R,3R,4R,5S)-3,4,5-trihydroxy-2-(hydroxy-methyl)piperidin-1-yl]hexyl}amino)phenyl]methanesulfonamide], the IC50 in test [1] (setting [6]) is 14 nM; in test [2], 20 nM; in test [3], 26 nM; in test [4], < 10 nM; in test [5], 52 nM.
For `COCCc1ccc(CCCCCN2C[C@H](O)[C@@H](O)[C@H](O)[C@H]2CO)cc1` [Compound 1307, (2R,3R,4R,5S)-2-(hydroxymethyl)-1-{5-[4-(2-methoxyethyl)phenyl]pentyl}piperidine-3,4,5-triol], in that order: 77 nM, 950 nM, 5000 nM, 32 nM and 387 nM.

For the origin of these results see patent US20250197372A1 (priority 2020, published 2025).
